“And” between values parts separate entries of the source, which are not always exact repeats. Identical values can stand only once.
Experiments:
M. tuberculosis Erdman = format: in vivo; settings: SB-P17G-A20 50 mg/kg IP bid, INH 20 mg/kg IP qd, days 5 to 14 post-infection
M. tuberculosis H37Rv [1] = format: cell-based, Mycobacterium tuberculosis; settings: 2×10^9 cells plated on 1.6 μg/mL (10 times MIC)
M. tuberculosis H37Rv [2] = format: cell-based; settings: SB-P17G-A20 with rifampicin

NNC(=O)c1ccncc1 [Isoniazid, reference compound]
reduction in bacterial load in the lungs (M. tuberculosis Erdman): below the level of detection
reduction in bacterial load in the spleen (M. tuberculosis Erdman): below the level of detection

CCCCOC(=O)Nc1cc2nc(C3CCCCC3)[nH]c2cc1N(C)C [SB-P17G-C2]
reduction in bacterial load in the lungs (M. tuberculosis Erdman): no significant reduction
reduction in bacterial load in the spleen (M. tuberculosis Erdman): no significant reduction

CN(C)c1cc2nc(C3CCCCC3)[nH]c2cc1NC(=O)c1ccc(OC(F)(F)F)cc1 [SB-P17G-A20]
reduction in bacterial load in the lungs (M. tuberculosis Erdman): 1.73±0.24 log10 CFU and 1.73 log10 CFU
reduction in bacterial load in the spleen (M. tuberculosis Erdman): 2.68 log10 CFU and 2.68±0.48 log10 CFU
spontaneous resistant mutants (M. tuberculosis H37Rv [1]): No mutants where observed
enhancement of activity in the presence of the other drug (M. tuberculosis H37Rv [2]): 2-4 fold
ΣFIC (M. tuberculosis H37Rv [2]): 0.75

Reference: patent US10287617B2, “Methods for in vitro—in vivo efficacy determination” (COLORADO STATE UNIVERSITY RESEARCH FOUNDATION, priority 2014, dated 2019)
